Where only a bound is given, the exact number is not on record here.

The target in one test is human M4 receptor (Homo sapiens (Human), UniProt P08173). The test is described as follows: Radioligand (tritiated N-methylscopolamine) binding assay, M4. Particulars: Ki against the M4 receptor; membranes from CHO cells expressing human M4; tritiated N-methylscopolamine 1.5 nM; read-out: Ki. Summed up: (§1)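 Ki from displacement of 1.5 nM [3H]N-methylscopolamine on membranes of CHO cells expressing each human receptor. Twelve compound concentrations (10 μM to […]), 90 min at 37° C in 50 mM HEPES, 100 mM NaCl, 5 mM MgCl2, 1 mM EDTA, pH 7.4. Bound ligand was captured by PEI-treated glass-fiber filtration and counted.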
human M4 receptor, sequence (P08173 whole entry): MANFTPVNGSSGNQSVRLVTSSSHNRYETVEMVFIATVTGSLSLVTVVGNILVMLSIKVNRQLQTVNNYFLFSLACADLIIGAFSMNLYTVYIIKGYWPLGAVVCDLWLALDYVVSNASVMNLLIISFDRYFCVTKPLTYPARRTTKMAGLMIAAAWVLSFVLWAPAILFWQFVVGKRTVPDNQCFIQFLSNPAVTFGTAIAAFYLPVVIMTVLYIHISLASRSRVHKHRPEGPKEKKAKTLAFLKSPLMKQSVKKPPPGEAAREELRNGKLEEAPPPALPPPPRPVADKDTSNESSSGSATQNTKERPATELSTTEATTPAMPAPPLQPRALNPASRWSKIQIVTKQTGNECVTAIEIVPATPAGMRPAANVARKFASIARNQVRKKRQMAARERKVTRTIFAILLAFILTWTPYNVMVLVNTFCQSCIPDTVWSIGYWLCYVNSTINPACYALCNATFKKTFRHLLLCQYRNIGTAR

The next test addresses human M1 receptor (Homo sapiens (Human), UniProt P11229). As to the kind of experiment: Radioligand (tritiated N-methylscopolamine) binding assay, M1. The settings on record: CHO cell membranes expressing human M1; 1.5 nM tritiated N-methylscopolamine; 90 min, 37° C.; read-out: Ki against M1 receptor (Table 21, M1). Summed up: as §1
The target of another test is human M2 receptor (Homo sapiens (Human), UniProt P08172). The test is described as follows: Radioligand (tritiated N-methylscopolamine) binding assay, M2. The settings on record: CHO cell membranes expressing human M2; 1.5 nM tritiated N-methylscopolamine; 90 min, 37° C.; read-out: Ki against M2 receptor (Table 21, M2). Summed up: as §1
human M2 receptor, sequence (P08172 whole entry): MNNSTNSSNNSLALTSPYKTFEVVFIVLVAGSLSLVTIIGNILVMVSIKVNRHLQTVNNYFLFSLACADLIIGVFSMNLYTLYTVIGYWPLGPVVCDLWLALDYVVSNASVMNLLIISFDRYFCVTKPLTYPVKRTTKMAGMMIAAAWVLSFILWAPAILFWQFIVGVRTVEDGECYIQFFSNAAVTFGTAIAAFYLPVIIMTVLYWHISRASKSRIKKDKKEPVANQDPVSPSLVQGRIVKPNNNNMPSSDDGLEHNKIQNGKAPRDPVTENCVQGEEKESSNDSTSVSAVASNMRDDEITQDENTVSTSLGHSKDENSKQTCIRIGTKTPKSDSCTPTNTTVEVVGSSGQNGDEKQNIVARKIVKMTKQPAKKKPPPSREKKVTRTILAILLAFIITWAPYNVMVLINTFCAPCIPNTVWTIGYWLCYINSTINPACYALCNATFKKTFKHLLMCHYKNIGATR
The target of another test is human M5 receptor (Homo sapiens (Human), UniProt P08912). As to the kind of experiment: Radioligand (tritiated N-methylscopolamine) binding assay, M5. Particulars: CHO cell membranes expressing human M5; 1.5 nM tritiated N-methylscopolamine; 90 min, 37° C.; read-out: Ki against M5 receptor (Table 21, M5). Summed up: as §1
human M5 receptor, sequence (P08912 whole entry): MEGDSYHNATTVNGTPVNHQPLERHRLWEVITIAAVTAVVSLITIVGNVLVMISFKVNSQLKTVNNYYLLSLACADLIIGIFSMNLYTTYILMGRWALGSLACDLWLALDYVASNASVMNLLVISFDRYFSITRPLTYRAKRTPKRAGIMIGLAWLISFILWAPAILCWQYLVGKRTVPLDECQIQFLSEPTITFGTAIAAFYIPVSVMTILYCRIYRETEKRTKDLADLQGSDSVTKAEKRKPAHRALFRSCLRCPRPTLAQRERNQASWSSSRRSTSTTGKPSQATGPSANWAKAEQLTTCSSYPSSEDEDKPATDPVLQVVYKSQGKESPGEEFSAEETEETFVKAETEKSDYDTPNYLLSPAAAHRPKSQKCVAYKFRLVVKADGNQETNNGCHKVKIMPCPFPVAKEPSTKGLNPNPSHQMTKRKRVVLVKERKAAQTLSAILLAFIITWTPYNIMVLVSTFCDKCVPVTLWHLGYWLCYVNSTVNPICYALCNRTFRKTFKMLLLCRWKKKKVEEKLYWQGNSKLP
A further test concerns the target human M3 receptor (Homo sapiens (Human), UniProt P20309). The test is described as follows: Radioligand (tritiated N-methylscopolamine) binding assay, M3. The settings on record: CHO cell membranes expressing human M3; 1.5 nM tritiated N-methylscopolamine; 90 min, 37° C.; read-out: Ki against M3 receptor (Table 21, M3). Summed up: as §1

human M1 receptor, sequence (P11229 whole entry): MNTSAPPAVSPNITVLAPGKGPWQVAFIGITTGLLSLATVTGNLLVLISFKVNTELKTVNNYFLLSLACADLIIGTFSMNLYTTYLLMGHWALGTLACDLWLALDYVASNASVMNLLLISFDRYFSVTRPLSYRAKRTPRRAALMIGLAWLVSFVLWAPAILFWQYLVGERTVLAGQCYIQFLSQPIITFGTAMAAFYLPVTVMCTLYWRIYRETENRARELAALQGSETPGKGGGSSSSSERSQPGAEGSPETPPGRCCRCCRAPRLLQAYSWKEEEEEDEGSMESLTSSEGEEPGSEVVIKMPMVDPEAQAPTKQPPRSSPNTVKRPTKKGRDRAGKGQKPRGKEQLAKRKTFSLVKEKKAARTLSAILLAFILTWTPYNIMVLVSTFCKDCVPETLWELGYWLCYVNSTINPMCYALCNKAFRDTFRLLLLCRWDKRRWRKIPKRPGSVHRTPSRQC
human M3 receptor, sequence (P20309 whole entry): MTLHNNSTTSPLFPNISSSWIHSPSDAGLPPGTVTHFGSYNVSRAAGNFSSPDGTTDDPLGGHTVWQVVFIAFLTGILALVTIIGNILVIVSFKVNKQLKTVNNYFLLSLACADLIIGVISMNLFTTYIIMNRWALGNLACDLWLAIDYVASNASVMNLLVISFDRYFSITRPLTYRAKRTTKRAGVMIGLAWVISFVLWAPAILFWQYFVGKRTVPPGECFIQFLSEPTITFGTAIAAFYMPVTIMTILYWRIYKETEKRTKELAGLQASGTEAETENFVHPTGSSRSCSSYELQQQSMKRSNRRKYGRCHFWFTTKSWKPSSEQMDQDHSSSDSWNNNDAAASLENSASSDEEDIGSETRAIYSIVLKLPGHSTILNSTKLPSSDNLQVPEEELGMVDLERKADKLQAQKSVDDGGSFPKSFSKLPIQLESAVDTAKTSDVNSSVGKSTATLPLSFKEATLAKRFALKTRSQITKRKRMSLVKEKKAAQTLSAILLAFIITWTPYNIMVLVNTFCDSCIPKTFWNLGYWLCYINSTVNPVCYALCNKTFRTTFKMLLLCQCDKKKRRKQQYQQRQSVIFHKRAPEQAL

For `C[C@@H]1CN(c2ccc(C#N)cc2)C[C@H](C)N1C(=O)NCCC1CCN(Cc2ccccc2)CC1` [22-2], the inhibition constant Ki (as a rule, the equilibrium dissociation constant of an inhibitor or competing ligand from its target) at human M4 receptor is below 0.01 µM; at human M1 receptor, above 1 µM; on human M2 receptor, 0.1 to 1 µM; on human M5 receptor it was above 1 µM; on human M3 receptor, above 1 µM.

These data come from patent US11033539B2, “Compounds of formulas (VII), (VIII), (IX), (XI), (XII), (XIII), and (XIV) as muscarinic receptor 4(M4) antagonists for treating neurological diseases” (Neurocrine Biosciences, Inc., priority 2015, dated 2021).
